Measurements reported in ChEMBL document CHEMBL4138287, “Total Synthesis of the Flavonoid Natural Product Houttuynoid A” (J Nat Prod, 2018).

Tested on: Herpesviridae sp.
Test: Antiviral activity against Herpes simplex virus infected in African green monkey Vero cells measured at 24 hrs post infection at 2 mins interval for 25 times
Format: functional, organism-based

| IC50 [µM] | SMILES |
| --- | --- |
| 57.7 | CCCCCCCCCc1cc2c(-c3oc4cc(O)cc(O)c4c(=O)c3O[C@@H]3O[C@H](CO)[C@H](O)[C@H](O)[C@H]3O)ccc(O)c2o1 |
| 23.5 | CCCCCCCCCc1oc2c(O)ccc(-c3oc4cc(O)cc(O)c4c(=O)c3O[C@@H]3O[C@H](CO)[C@H](O)[C@H](O)[C@H]3O)c2c1C=O |
